Values of other authors as cited in PMC3437650 (Bioorganic & medicinal chemistry letters, 2008).

Test system: BBB choline transporter
Details: ref 11b

## N,N’-(1,12-dodecandiyl)-bis-pyridinium dibromide [bPiDDB]
  share of permeation into brain that uses the BBB choline transporter: ~ 90%
